Data published in publication PMC9558510 (Cancers, 2022).

Legend:
Format in all cases: in vivo, human
[1] = popPK model-informed VAMS-to-serum conversion model (self-sampled capillary blood); settings: for Ind V1/F / Ind CL/F / Ind Q/F: at-home VAMS; for Ind Kbp: MAP estimate from at least one paired sample
Description: In addition to serum sampling, patients were asked to participate in the sampling of capillary blood in the clinic and at home. Micro-sampling was not obligatory for enrollment in the study. Micro-sampling was performed from a finger by drawing 20 µL of capillary blood onto the VAMS device MITRA® purchased from Neoteryx (Torrance, CA, USA). During outpatient visits, micro-sampling was conducted by medical staff in parallel to serum sampling. A maximum of six corresponding serum/VAMS samples were collected per patient. Additionally, patients were asked to perform at-home sampling after being instructed by trained staff. For each at-home sampling occasion, patients received a set including four VAMS devices. Patients were instructed to perform sampling at four different time points during the following four time slots: 9 a.m.–12 p.m., 12–3 p.m., 3–6 p.m., and 6–9 p.m. […] Samples collected during different time slots were still accepted. The time of last drug administration and sampling times were self-documented on a specific form. No special storage conditions were specified, and patients were asked to keep samples at ambient temperature until shipment. Samples were sent to the laboratory in an airtight and opaque bag containing desiccant for analysis. At-home samples were collected at up to four occasions per patient. Hematocrit was documented from the results of routine blood withdrawal for VAMS samples collected during outpatient visits. For at-home samples, the last known hematocrit was used. […]
The conversion was based on a hematocrit-dependent formula (Figure 1). […] As proposed by Iacuzzi et al., the blood cell to plasma partition coefficient (Kbp) and intraindividual variability (IIV) were included in the conversion model and estimated from the consolidated data (Figure 1). For this purpose and to evaluate the conversion models, all the serum (Supplementary Table S1) and VAMS concentrations (collected at home or in the clinic) (Supplementary Table S2) were consolidated in a single dataset and fitted to the combined model using the EBE in Monolix 2021R1 (Lixoft SAS, Antony, France). Incorrectly sampled VAMS were removed from the dataset. The resulting individual predicted VAMS concentrations were compared with the observed VAMS concentrations. […] For trametinib, at least one paired sample per patient was included to generate the individual estimate for Kbp. A visual predictive check was performed to evaluate the predictive performance of the method.
Figure 1 Development of the population pharmacokinetic (popPK) model-informed VAMS-to-serum conversion model. PopPK models by Balakirouchenane et al. were used to generate serum maximum a posteriori (MAP) estimates from volumetric absorptive micro-sampling (VAMS) for dabrafenib (A) and trametinib (B).

[2] = Adverse events (CTCAE v5.0), dose reductions and treatment discontinuations; settings: for patients with dose reduction of the named drug due to AE during the study period: 27 patients
Text: AE was routinely assessed by the treating physicians at each serum sampling time point and graded according to the […] (CTCAE) Version 5.0 [35]. Additionally, permanent and temporary treatment discontinuations, dose reductions, and corresponding reasons were documented. Further recorded patient data included age, sex, height, weight, smoking status, dosing regimen, co-medication, and relevant laboratory parameters if ordered by the treating physician (platelet count, white blood cell count, absolute neutrophil count, absolute lymphocyte count, hemoglobin, bilirubin, aspartate and alanine aminotransferase, alkaline phosphatase, gamma-glutamyl transferase, amylase, lipase, creatine kinase, phosphate, sodium, glucose, serum creatinine, and estimated glomerular filtration rate). The treatment and frequency of visits were managed by the treating physicians without knowing the measured drug concentrations. AE was not assessed simultaneously with the collection of VAMS samples.

[3] = Logistic regression of dose reduction/discontinuation vs predicted exposure; settings: for relationship between dose reduction or discontinuation due to AE and predicted serum trough concentrations or AUCτ: logistic regression, standard dosing assumed
Description: Data were collected and processed using Microsoft Excel 2016 Version 16.0 (Microsoft Corporation, Redmond, WA, USA). Statistical calculations and visualization of results were performed with R Studio Version 1.2.5042 (RStudio Incorporation, Boston, MA, USA) running R version 4.0.5 (R Foundation for Statistical Computing, Vienna, Austria, 2020). For further analysis, serum concentrations were divided into groups according to time interval post-dose as follows: 0–5 h, 5–10 h, 10–14 h, and >14 h for (hydroxy-)dabrafenib and 0–10 h, 10–20 h, 20–30 h, and >30 h for trametinib. Concentrations < LLOQ were excluded from further statistical analyses. The concentrations of the same patient at the same dosage and within the same post-dose group were summarized into an individual mean serum concentration for descriptive statistical analysis to account for potential bias caused by the unbalanced number of samples per patient. […] The Wilcoxon […] test was used for unpaired samples. The correlations between individual PK parameters sampled from the conditional distribution during the generation of EBE (methods for estimation see below) and age, sex, body mass index (BMI), and co-medication were analyzed using analysis of variance (ANOVA) and Spearman’s correlation coefficient. Logistic regression was used to compare the risk of treatment discontinuations or dose reductions (dabrafenib dose reduction or discontinuation, trametinib dose reduction or discontinuation, or any dose reduction or discontinuation) with the corresponding predicted trough concentrations and area under the curve of a dosing interval (AUCτ) of dabrafenib, hydroxy-dabrafenib, and trametinib as well as with the composite predicted dabrafenib/hydroxy-dabrafenib trough concentration and with composite dabrafenib/hydroxy-dabrafenib AUCτ assuming standard dosing. The Hosmer–Lemeshow test was used to evaluate the goodness of fit for our logistic regression model. Due to the explorative nature of the study, p-values obtained from multiple comparisons were not corrected for multiple testing. A p-value < 0.05 was considered statistically significant.

[4] = MAP estimate, patient DT002, 2 mg/24 h
[5] = MAP estimate, patient DT010, 2 mg/24 h
[6] = MAP estimate, patient DT014, 2 mg/24 h
[7] = MAP estimate, patient DT018, 1 mg/24 h
[8] = MAP estimate, patient DT019, 1.5 mg/24 h
[9] = MAP estimate, patient DT026, 2 mg/24 h
[10] = MAP estimate, patient DT027, 2 mg/24 h

CC(C)(C)c1nc(-c2cccc(NS(=O)(=O)c3c(F)cccc3F)c2F)c(-c2ccnc(N)n2)s1 [dabrafenib]
Ind V1/F ([1]; MAP estimate, patient DT002, 150 mg/12 h): 30.8 L | Ind V1/F ([1]; MAP estimate, patient DT005, 150 mg/12 h): 24.7 L | Ind V1/F ([1]; MAP estimate, patient DT010, 150 mg/12 h): 14.3 L | Ind V1/F ([1]; MAP estimate, patient DT014, 150 mg/12 h): 30.2 L | Ind V1/F ([1]; MAP estimate, patient DT018, 150 mg/12 h): 82.5 L | Ind V1/F ([1]; MAP estimate, patient DT019, 150 mg/12 h): 39.5 L | Ind V1/F ([1]; MAP estimate, patient DT026, 100 mg/12 h): 40.3 L | Ind V1/F ([1]; MAP estimate, patient DT027, 150 mg/12 h): 71.5 L | Ind CL/F ([1]; patient DT002, occasion 1, 150 mg/12 h): 13.5 L/h | Ind CL/F ([1]; patient DT002, occasion 2, 150 mg/12 h): 17.2 L/h | Ind CL/F ([1]; patient DT002, occasion 3, 150 mg/12 h): 21.1 L/h | Ind CL/F ([1]; patient DT005, occasion 1, 150 mg/12 h): 20.7 L/h | Ind CL/F ([1]; patient DT010, occasion 1, 150 mg/12 h): 18.5 L/h | Ind CL/F ([1]; patient DT010, occasion 2, 150 mg/12 h): 33.3 L/h | Ind CL/F ([1]; patient DT010, occasion 3, 150 mg/12 h): 12.1 L/h | Ind CL/F ([1]; patient DT014, occasion 1, 150 mg/12 h): 30.1 L/h | Ind CL/F ([1]; patient DT018, occasion 1, 150 mg/12 h): 24.7 L/h | Ind CL/F ([1]; patient DT018, occasion 2, 150 mg/12 h): 14.9 L/h | Ind CL/F ([1]; patient DT018, occasion 3, 150 mg/12 h): 37.5 L/h | Ind CL/F ([1]; patient DT018, occasion 4, 150 mg/12 h): 32.3 L/h | Ind CL/F ([1]; patient DT019, occasion 1, 150 mg/12 h): 33.1 L/h | Ind CL/F ([1]; patient DT019, occasion 2, 150 mg/12 h): 15.8 L/h | Ind CL/F ([1]; patient DT019, occasion 3, 150 mg/12 h): 9.8 L/h | Ind CL/F ([1]; patient DT019, occasion 4, 150 mg/12 h): 24.2 L/h | Ind CL/F ([1]; patient DT026, occasion 1, 100 mg/12 h): 33.3 L/h | Ind CL/F ([1]; patient DT026, occasion 2, 100 mg/12 h): 41.1 L/h | Ind CL/F ([1]; patient DT026, occasion 3, 100 mg/12 h): 38.7 L/h | Ind CL/F ([1]; patient DT027, occasion 1, 150 mg/12 h): 28.6 L/h | Ind CL/F ([1]; patient DT027, occasion 2, 150 mg/12 h): 23.2 L/h | Ind CL/F ([1]; patient DT027, occasion 3, 150 mg/12 h): 36.5 L/h | patients with dose reduction of the named drug due to AE during the study period [2]: 7.4% | dose reduction n (%) ([2]; none): 24 (88.9) n (%) | permanent treatment discontinuation n (%) ([2]; none): 19 (70.4) n (%) | temporary treatment discontinuation n (%) ([2]; none): 17 (63.0) n (%) | permanent treatment discontinuation n (%) ([2]; reason: adverse events): 2 (7.4) n (%) | relationship between dose reduction or discontinuation due to AE and predicted serum trough concentrations or AUCτ [3]: no significant relationships

CC(=O)Nc1cccc(-n2c(=O)n(C3CC3)c(=O)c3c(Nc4ccc(I)cc4F)n(C)c(=O)c(C)c32)c1 [trametinib]
Ind Kbp ([1]; patient DT002): 4.84 | Ind Kbp ([1]; patient DT010): 4.98 | Ind Kbp ([1]; patient DT014): 5.36 | Ind Kbp ([1]; patient DT018): 3.89 | Ind Kbp ([1]; patient DT019): 3.91 | Ind Kbp ([1]; patient DT026): 4.38 | Ind Kbp ([1]; patient DT027): 4.41 | Ind CL/F [1, 4]: 6.07 L/h | Ind Q/F [1, 4]: 97.65 L/h | Ind CL/F [1, 5]: 6.63 L/h | Ind Q/F [1, 5]: 125.55 L/h | Ind CL/F [1, 6]: 8.36 L/h | Ind Q/F [1, 6]: 129.17 L/h | Ind CL/F [1, 7]: 3.52 L/h | Ind Q/F [1, 7]: 185.04 L/h | Ind CL/F [1, 8]: 3.79 L/h | Ind Q/F [1, 8]: 77.82 L/h | Ind CL/F [1, 9]: 6.25 L/h | Ind Q/F [1, 9]: 106.5 L/h | Ind CL/F [1, 10]: 6.95 L/h | Ind Q/F [1, 10]: 65.04 L/h | population value for Kbp (blood cell to plasma partition coefficient) ([1]; estimated from combined serum and VAMS dataset): 4.62 | IIV of ωKbp ([1]; extended trametinib model): 0.31 | patients with dose reduction of the named drug due to AE during the study period [2]: 3.7% | patients who discontinued the named drug(s) permanently due to AE ([2]; both drugs, or only trametinib): 3.7% | dose reduction n (%) ([2]; none): 21 (77.8) n (%) | permanent treatment discontinuation n (%) ([2]; none): 18 (66.7) n (%) | temporary treatment discontinuation n (%) ([2]; none): 17 (63.0) n (%) | permanent treatment discontinuation n (%) ([2]; reason: adverse events): 3 (11.1) n (%) | relationship between dose reduction or discontinuation due to AE and predicted serum trough concentrations or AUCτ [3]: no significant relationships | effect of Cmin on probability of dose reduction or treatment discontinuation (logistic regression) ([3]; predicted trough concentration as exposure surrogate, intercept -0.349, p-value 0.0798): 0.06178
